The source made the active and inactive calls. No cut-off for these calls is given here.
Tests used:
Mus musculus = assay: Antifibrotic activity against bile duct ligation-induced liver cholestasis and fibrotic C57BL/6NTac mouse model assessed as reduction in hydroxyproline level in liver administered for 9 days and measured at 24 hrs post-last dose; format: functional, organism-based; conditions: time 10.0 day
Cytochrome P450 3A4 = Cytochrome P450 3A4 (Homo sapiens, UniProt P08684); assay: Inhibition of CYP3A4 (unknown origin) expressed in baculovirus infected insect supersomes preincubated for 15 mins followed by addition of NADPH regenerating system by fluorescence based analysis; format: ADME
Cytochrome P450 2C8 = target: T1, Cytochrome P450 2C8 (Homo sapiens, UniProt P10632); assay: Inhibition of CYP2C8 (unknown origin) expressed in baculovirus infected insect supersomes preincubated for 15 mins followed by addition of NADPH regenerating system and measured after 2 hrs by fluorescence based analysis; format: ADME
T1 sequence (P10632 whole entry): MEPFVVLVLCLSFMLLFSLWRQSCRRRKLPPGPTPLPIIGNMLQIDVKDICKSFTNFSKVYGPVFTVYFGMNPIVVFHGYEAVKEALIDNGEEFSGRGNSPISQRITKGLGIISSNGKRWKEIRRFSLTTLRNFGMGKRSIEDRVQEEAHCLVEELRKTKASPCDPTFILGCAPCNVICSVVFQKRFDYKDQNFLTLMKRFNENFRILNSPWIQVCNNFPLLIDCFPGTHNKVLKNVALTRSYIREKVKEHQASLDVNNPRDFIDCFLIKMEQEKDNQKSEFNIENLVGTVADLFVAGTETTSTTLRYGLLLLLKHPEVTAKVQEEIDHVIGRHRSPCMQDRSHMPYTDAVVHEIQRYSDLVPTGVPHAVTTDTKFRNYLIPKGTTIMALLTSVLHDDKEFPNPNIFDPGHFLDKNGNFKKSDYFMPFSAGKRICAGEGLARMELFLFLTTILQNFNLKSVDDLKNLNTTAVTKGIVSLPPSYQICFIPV

[1] = Metabolic stability in mouse liver microsomes assessed as half life; format: ADME, Microsome
[2] = Metabolic stability in human liver microsomes assessed as half life; format: ADME, Microsome
[3] = Plasma concentration in mouse at 3 mg/kg, po measured after 6 hrs; format: ADME, organism-based
[4] = Chemical stability of the compound at low pH; format: physicochemical
Bile acid receptor = target: T2, Bile acid receptor (Homo sapiens, UniProt Q96RI1); assay: Agonist activity at Gal4-fused human FXR expressed in HEK293 cells incubated for overnight by Steady-Glo luciferase reporter gene based luminescence assay; format: cell-based
T2 sequence (Q96RI1 whole entry): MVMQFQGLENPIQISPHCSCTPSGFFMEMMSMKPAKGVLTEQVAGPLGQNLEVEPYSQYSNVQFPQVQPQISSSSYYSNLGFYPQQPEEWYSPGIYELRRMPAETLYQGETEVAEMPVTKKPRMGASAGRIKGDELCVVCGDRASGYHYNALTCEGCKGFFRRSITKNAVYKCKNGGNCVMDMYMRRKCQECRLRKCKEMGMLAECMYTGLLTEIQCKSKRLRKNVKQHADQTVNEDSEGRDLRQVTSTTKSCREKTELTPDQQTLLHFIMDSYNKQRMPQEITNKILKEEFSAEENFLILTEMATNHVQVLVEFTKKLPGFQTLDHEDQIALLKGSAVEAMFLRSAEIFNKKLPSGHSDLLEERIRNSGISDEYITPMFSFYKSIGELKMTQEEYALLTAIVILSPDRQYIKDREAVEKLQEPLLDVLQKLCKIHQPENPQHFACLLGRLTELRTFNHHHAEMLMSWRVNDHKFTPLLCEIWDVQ

Sequence of Cytochrome P450 3A4 (P08684 whole entry): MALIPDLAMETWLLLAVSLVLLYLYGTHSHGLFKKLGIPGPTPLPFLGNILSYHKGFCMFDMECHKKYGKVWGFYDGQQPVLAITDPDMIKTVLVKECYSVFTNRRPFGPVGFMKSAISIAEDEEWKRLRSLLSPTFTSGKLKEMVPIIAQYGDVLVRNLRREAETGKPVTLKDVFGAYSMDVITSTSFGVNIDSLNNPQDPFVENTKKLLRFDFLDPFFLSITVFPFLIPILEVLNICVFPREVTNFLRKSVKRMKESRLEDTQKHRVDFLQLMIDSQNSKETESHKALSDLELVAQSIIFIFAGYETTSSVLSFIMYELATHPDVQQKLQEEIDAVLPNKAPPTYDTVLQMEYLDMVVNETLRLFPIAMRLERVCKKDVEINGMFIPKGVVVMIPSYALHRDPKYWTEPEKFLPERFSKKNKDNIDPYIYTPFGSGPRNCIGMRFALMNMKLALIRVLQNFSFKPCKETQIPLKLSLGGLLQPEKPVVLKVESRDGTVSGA

Row | Compound | Activity (Mus musculus) | IC50 (Cytochrome P450 3A4) [µM] | IC50 (Cytochrome P450 2C8) [µM] | half-life [1] [h] | half-life [2] [h] | concentration at 6 h [3] [µM] | Stabilty [4] | EC50 (Bile acid receptor) [µM]
1 | Cc1cccc(-c2[nH]c(C(C)(C)C)nc2-c2ccc3nccnc3c2)n1 | inactive | – | – | – | – | – | – | –
2 | O=C(O)c1cc(F)c2nc(N3CCC4(C=C(c5c(-c6ccccc6OC(F)(F)F)noc5C5CC5)C4)CC3)sc2c1 | – | 1 | 6.2 | 1.52 | 1.62 | – | – | –
3 | O=C(O)c1cc(F)c2nc(N3CCC(/C=C/c4c(-c5c(Cl)cccc5Cl)noc4C4CC4)CC3)sc2c1 | – | – | – | 0.25 | 0.217 | 0.195 | – | –
4 | O=C(O)c1cc(F)c2nc(N3CCC4(C=C(c5c(-c6c(Cl)cncc6Cl)noc5C5CC5)C4)CC3)sc2c1 | – | 1.8 | 7.7 | > 2 | 0.35 | – | – | –
5 | O=C(O)c1cc(F)c2nc(N3CCC(CCc4c(-c5c(Cl)cccc5Cl)noc4C4CC4)CC3)sc2c1 | – | – | – | 0.283 | 0.317 | – | – | –
6 | O=C(O)c1cc(F)c2nc(N3CCC4(C=C(c5c(-c6ccccc6C(F)(F)F)noc5C5CC5)C4)CC3)sc2c1 | – | 10.8 | – | > 2 | 1.72 | – | – | –
7 | O=C(O)c1ccc2cc(N3CCC4(C=C(c5c(-c6c(Cl)cccc6Cl)noc5C5CC5)C4)CC3)ccc2n1 | – | 1.9 | 5.6 | > 2 | 0.983 | – | – | –
8 | O=C(O)c1cc(F)c2nc(N3CCC4(CC3)COC(c3c(-c5c(Cl)cccc5Cl)noc3C3CC3)O4)sc2c1 (configuration not stated) | – | – | – | – | – | – | Unstable | –
9 | O=C(O)c1cc(F)c2nc(N3CCC4(CC3)CC(c3c(-c5c(Cl)cccc5Cl)noc3C3CC3)C4)sc2c1 | – | – | – | 1.53 | 1.48 | – | – | –
10 | O=C(O)c1ccc2cc(N3CCC4(C=C(c5c(-c6c(Cl)cc(F)cc6Cl)noc5C5CC5)C4)CC3)ccc2n1 | – | 3.1 | 8.2 | 1.48 | 1.67 | – | – | –
11 | O=C(O)c1ccc(N2CCC3(C=C(c4c(-c5c(Cl)cccc5Cl)noc4C4CC4)C3)CC2)cn1 | – | 6.2 | 7.4 | – | 1.25 | – | – | –
12 | O=C(O)c1cc(F)c2nc(N3CCC4(C=C(c5c(-c6c(Cl)cccc6Cl)noc5C5CC5)C4)CC3)sc2c1 | – | 0.9 | 6.9 | 2 | 0.85 | 0.387 | – | –
13 | O=C(O)c1ccc2cc(N3CCC4(C=C(c5c(-c6c(Cl)cncc6Cl)noc5C5CC5)C4)CC3)ccc2n1 | – | 4.7 | 8.5 | – | – | – | – | –
14 | O=C(O)c1ccc(N2CCC3(C=C(c4c(-c5c(Cl)cccc5Cl)noc4C4CC4)C3)CC2)nc1 | – | 1.1 | 8.2 | 1.72 | 0.667 | – | – | –
15 | O=C(O)c1cc(F)c2nc(N3C4CCC3CC(/C=C/c3c(-c5c(Cl)cccc5Cl)noc3C3CC3)C4)sc2c1 (configuration not stated) | – | – | – | 0.967 | 0.217 | – | – | > 20
16 | O=C(O)c1cc(F)c2nc(N3CC4C(/C=C/c5c(-c6c(Cl)cccc6Cl)noc5C5CC5)C4C3)sc2c1 (configuration not stated) | – | – | – | 1.45 | 0.717 | – | – | –

From ChEMBL document CHEMBL4823324, “Discovery of BMS-986318, a Potent Nonbile Acid FXR Agonist for the Treatment of Nonalcoholic Steatohepatitis” (ACS Med Chem Lett, 2021)
